We go through 1 molecule from patent publication US7374890B2, “Methods for identifying compounds that modulate ΔTRα2 activity” (University of Massachusetts, priority 2000, dated 2008).

Assay [1] has as its system cerebellar granule neurons. The assay is described as follows: FM1-43 synaptic vesicle recycling in cultured cerebellar granule neurons, spontaneous activity. The format is cell-based, rat. As to the method:
All of the major components of hormone-induced vesicle trafficking in astrocytes (actin fibers, myosin V (also referred to as myosin 5a and myo 5a), and recycling vesicles) are also present in nerve terminals. Therefore, the effects of thyroid hormone on synaptic vesicle recycling in the presynaptic nerve terminal were examined using myo5a-dependent synaptic vesicle (SV) recycling in cultured cerebellar granule neurons. In these experiments, rat granule neurons were grown on laminin-coated coverslips in the absence or presence of hormone and synaptic vesicle recycling was examined using FM1-43 (a styryl dye used in the art for studying endocytosis and exocytosis, e.g., in synaptic vesicle uptake and release assays; Molecular Probes, Inc. Eugene, Oreg.). […] In contrast, granule neurons grown in thyroid hormone supplemented medium released only 15-20% of the FM1-43 after six minutes of incubation and the hormone specificity of retention of FM1-43 in the “reserve pool” was identical to that determined for myo5a-dependent, endocytosis of p29 vesicles (D2p29 vesicles) in astrocytes.
Cerebellar granule neurons were examined because thyroid hormone has a profound influence on granule neuron viability during cerebellar maturation (Xiao and Nikodem, 1998, Front. Biosci. 3: A52-57; Rabie et al., 1980, Brain Res. 190:409-414), and because of the effects of the loss of myo5a on synaptic vesicle homeostasis (Bridgman, 1999, J. Cell Biol. 146:1045-1060). […]
Experiments were conducted to determine whether synaptic vesicle endocytosis could be altered by the hormone status of the neuron. […] The dye was then removed and the number, intensity and retention of the FM1-43 in random nerve terminals immediately after washing and after six minutes of autonomous activity were analyzed in paraformaldehyde fixed cells (Ryan, 1999, J. Neurosci.: 19:1317-1323). Fluorescence in single nerve terminals (ROI=7×7 pixels) and in an adjacent segment of the neuronal fiber were measured for 40-45 individual nerve terminals. […] Fluorescence intensity was determined using NIH Image software. The total FM1-43 fluorescence in a nerve terminal represents the sum of the dye-loaded synaptic vesicles in the readily releasable and the reserve pools.
By allowing recurrent activity, the FM1-43 filled synaptic vesicles present in the readily releasable pool will be progressively depleted. […] By measuring the total FM1-43 content in random nerve terminals immediately after loading and at 30 second intervals for six minutes of spontaneous activity, the influence of hormones on the distribution of recycling synaptic vesicles between the readily releasable and reserve pools was estimated.

Assay [2] concerns the target T1, ΔTRα2 (T4 Inactivating Protein; TIP) (Rattus norvegicus, UniProt P63059).
T1 construct: ΔTRα2 is encoded by exons 8-10 resulting in an approximately 25 kd protein
The assay is described as follows: rT3 binding displacement in nuclei-free extracts of cultured rat astrocytes. The note with it: ΔTRα2-containing nuclei-free astrocyte extracts; rT3 as ligand; read-out: Kd, displacement of rT3. As to the method: The properties of thyroid hormone binding to non-nuclear components of the cell were examined using ΔTRα2 (T4 Inactivating Protein; TIP)-containing, nuclei-free extracts of cultured rat astrocytes. […] Both rT3 and T4 specifically displace rT3 with Kd's of approximately 0.3-0.5 nM.

The test system of a further assay is astrocytes. Nature of the assay: subcellular distribution of immunoreactive TRα2-derived proteins in cultured astrocytes. Type of assay: cell-based, rat. The following applies: serum-free medium, treated 20 minutes, 0.1% bovine serum albumin carrier. The text has this:
The subcellular distribution of immunoreactive thyroid hormone receptor-derived proteins in primary brain cell cultures and in cultured astrocytes was examined. Primary brain cell cultures were fixed with 0.4% paraformaldehyde, permeabilized with Triton X-100®, and stained for TRα-derived proteins using specific antisera directed against the unique C-termini of TRα1 and TRα2 proteins, and visualized by staining with a secondary tagged antibody. Consistent with previous observations (Kolodny et al., 1985, Endocrinol. 117: 1848-1857), immunoreactive TRα1 proteins were found in the nuclei of astrocytes and neuronal cells. However, TRα2-derived proteins were not localized to the nucleus in either astrocytes or neurons, but appeared as donut shaped structures located throughout the astrocyte or as discreet punctate signals along neuronal fibers. This latter pattern is diagnostic for synapses in neuronal cultures (Wong et al., 1999, Neurosci. 89:221-233), and is consistent with the presence of ΔTRα2-derived protein in nerve terminals.
The subcellular distribution of immunoreactive TRα2-derived proteins in cultured astrocytes was influenced by the presence of either T4 or rT3. In these experiments astrocytes were grown in serum-free medium, treated for 20 minutes with either […] or rT3, and fixed, permeabilized, and stained as described above. […]

Structures are written as SMILES.

T1 sequence (P63059 whole entry, stated change not applied): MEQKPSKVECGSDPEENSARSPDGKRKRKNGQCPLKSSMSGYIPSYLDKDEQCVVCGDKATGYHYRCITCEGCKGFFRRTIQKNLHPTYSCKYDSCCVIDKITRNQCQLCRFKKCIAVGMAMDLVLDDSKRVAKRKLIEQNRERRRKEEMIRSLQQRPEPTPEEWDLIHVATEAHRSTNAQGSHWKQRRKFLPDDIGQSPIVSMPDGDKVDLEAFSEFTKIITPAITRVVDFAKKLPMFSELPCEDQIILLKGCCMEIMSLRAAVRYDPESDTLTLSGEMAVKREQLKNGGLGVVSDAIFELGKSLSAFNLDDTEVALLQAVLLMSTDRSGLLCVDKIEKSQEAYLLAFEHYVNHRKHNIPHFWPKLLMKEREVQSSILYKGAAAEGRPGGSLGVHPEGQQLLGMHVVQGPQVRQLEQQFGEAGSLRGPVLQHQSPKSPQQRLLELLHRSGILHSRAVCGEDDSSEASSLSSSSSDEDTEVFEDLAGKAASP

Usually Kd stands for a measure of binding affinity in units of concentration. Consider `N[C@@H](Cc1cc(I)c(Oc2cc(I)c(O)c(I)c2)c(I)c1)C(=O)O` [T4, thyroxine], for which the “endocytosed FM1-43 retained” value in assay [1] (acute treatment, after three minutes of spontaneous stimulation) is on record as greater than 90%. Besides, the “uptake of FM1-43” value in assay [1] (immediately after loading) is “No differences”. In assay [2], the Kd lay within 0.3 to 0.5 nM. Besides, the “subcellular distribution of TRα2-derived proteins” value in the assay on astrocytes is “coalescence of the TRα2-derived proteins around the perinuclear space”.
